Here are results for 22 compounds from patent publication US8735398B2 (Bristol-Myers Squibb Company, priority 2009, dated 2014).

Where only a bound is given, the exact number is not on record here.

In one assay the test system is HCV 1b genotype. The assay is described as follows: HCV replicon assay (HCV-neo replicon cells, wild-type). The class given is cell-based, Hepatitis C virus. As to conditions: HCV 1b genotype replicon; class symbols; read-out: EC50 Range against HCV 1b. The gist of the method: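 Inhibition was tested in replicon-bearing cells, both wild-type HCV-neo and lines with NS5A resistance substitutions, using the O'Boyle et al. 2005 replicon method or luciferase-reporter formats.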
A word on the EC50: it is the concentration giving half of the maximal effect. As for `CN(C)C(Cc1ccc(Br)cc1)C(=O)N1CCC[C@H]1C(=O)Nc1ccc(-c2cnc(-c3ccc(NC(=O)[C@@H]4CCCN4C(=O)C(Cc4ccc(Br)cc4)N(C)C)cc3)o2)cc1` (stereo partly drawn) [JR-8, (2S)-N,N′-(4,4′-(oxazole-2,5-diyl)bis(4,1-phenylene))bis(1-(3-(4-bromophenyl)-2-(dimethylamino)propanoyl)pyrrolidine-2-carboxamide)], the EC50 lay in the range of 4.57 to 99 nM.

Turning to `CN(C)C(Cn1cncn1)C(=O)N1CCC[C@H]1C(=O)Nc1ccc(-c2cnc(-c3ccc(NC(=O)[C@@H]4CCCN4C(=O)C(Cn4cncn4)N(C)C)cc3)o2)cc1` (stereo partly drawn) [JR-12, (2S)-N,N′-(4,4′-(oxazole-2,5-diyl)bis(4,1-phenylene))bis(1-(2-(dimethylamino)-3-(1H-1,2,4-triazol-1-yl)propanoyl)pyrrolidine-2-carboxamide)], the EC50 lay within 100 to 999 nM.

For `CN(C)[C@H](C(=O)N1CCC[C@H]1C(=O)Nc1ccc(-c2cnc(-c3ccc(NC(=O)[C@@H]4CCCN4C(=O)[C@H]([C@@H](O)c4ccccc4)N(C)C)cc3)o2)cc1)[C@@H](O)c1ccccc1` [JR-13, (S,S,2S)-N,N′-(4,4′-(oxazole-2,5-diyl)bis(4,1-phenylene))bis(1-((2S,3S)-2-(dimethylamino)-3-hydroxy-3-phenylpropanoyl)pyrrolidine-2-carboxamide)], the EC50 fell in the range of 100 to 999 nM.

In the case of `CN(C)[C@H](C(=O)N1CCC[C@H]1C(=O)Nc1ccc(-c2cnc(-c3ccc(NC(=O)[C@@H]4CCCN4C(=O)[C@H]([C@H](O)c4ccccc4)N(C)C)cc3)o2)cc1)[C@H](O)c1ccccc1` [JR-14, (S,R,2S)-N,N′-(4,4′-(oxazole-2,5-diyl)bis(4,1-phenylene))bis(1-((2S,3R)-2-(dimethylamino)-3-hydroxy-3-phenylpropanoyl)pyrrolidine-2-carboxamide)], the EC50 lay within 1000 to 10000 nM.

Take `CN(C)[C@H](C(=O)N1CCC[C@H]1C(=O)Nc1ccc(-c2cnc(-c3ccc(NC(=O)[C@@H]4CCCN4C(=O)[C@H]([C@@H](O)c4ccsc4)N(C)C)cc3)o2)cc1)[C@@H](O)c1ccsc1` [JR-15, (S,S,2S)-N,N′-(4,4′-(oxazole-2,5-diyl)bis(4,1-phenylene))bis(1-((2S,3S)-2-(dimethylamino)-3-hydroxy-3-(thiophen-3-yl)propanoyl)pyrrolidine-2-carboxamide)]: the EC50 lay within 4.57 to 99 nM.

In the case of `CN(C)[C@H](C(=O)N1CCC[C@H]1C(=O)Nc1ccc(-c2cnc(-c3ccc(NC(=O)[C@@H]4CCCN4C(=O)[C@H]([C@H](O)c4ccsc4)N(C)C)cc3)o2)cc1)[C@H](O)c1ccsc1` [JR-16, (S,R,2S)-N,N′-(4,4′-(oxazole-2,5-diyl)bis(4,1-phenylene))bis(1-((2S,3R)-2-(dimethylamino)-3-hydroxy-3-(thiophen-3-yl)propanoyl)pyrrolidine-2-carboxamide)], the EC50 lay in the range of 1000 to 10000 nM.

Still in this assay, the particulars now being: HCV 1b genotype replicon; read-out: EC50 1b.
On to `CN(C)[C@H](C(=O)N1CCC[C@H]1C(=O)Nc1ccc(-c2cnc(-c3ccc(NC(=O)[C@@H]4CCCN4C(=O)[C@H]([C@@H](O)c4ccccc4)N(C)C)cc3)o2)cc1)[C@@H](O)c1ccccc1` [JR-13, (S,S,2S)-N,N′-(4,4′-(oxazole-2,5-diyl)bis(4,1-phenylene))bis(1-((2S,3S)-2-(dimethylamino)-3-hydroxy-3-phenylpropanoyl)pyrrolidine-2-carboxamide)], for which the EC50 is 112 nM.

Staying with this assay, now noted: Hepatitis C virus, HCV 1b genotype replicon; class symbol; read-out: EC50 Range against HCV 1b.
`CC(=O)N1CCC[C@H]1C(=O)Nc1ccc(-c2cnc(-c3ccc(NC(=O)[C@@H]4CCCN4C(=O)Cc4ccccc4)cc3)o2)cc1` [MS-1, (2S)-1-acetyl-N-(4-(2-(4-((((2S)-1-(phenylacetyl)-2-pyrrolidinyl)carbonyl)amino)phenyl)-1,3-oxazol-5-yl)phenyl)-2-pyrrolidinecarboxamide]: the EC50 was 100 to 999 nM.

With `CC(=O)N1CCC[C@H]1C(=O)Nc1ccc(-c2cnc(-c3ccc(NC(=O)[C@@H]4C[C@@H](OC(C)(C)C)CN4C(=O)OCc4ccccc4)cc3)o2)cc1` [MS-2, benzyl (2S,4R)-2-((4-(5-(4-((((2S)-1-acetyl-2-pyrrolidinyl)carbonyl)amino)phenyl)-1,3-oxazol-2-yl)phenyl)carbamoyl)-4-tert-butoxy-1-pyrrolidinecarboxylate], the EC50 was 100 to 999 nM.

On to `CC(=O)N1CCC[C@H]1C(=O)Nc1ccc(-c2cnc(-c3ccc(NC(=O)[C@@H]4C[C@@H](O)CN4C(=O)OCc4ccccc4)cc3)o2)cc1` [MS-3, benzyl (2S,4R)-2-((4-(5-(4-((((2S)-1-acetyl-2-pyrrolidinyl)carbonyl)amino)phenyl)-1,3-oxazol-2-yl)phenyl)carbamoyl)-4-hydroxy-1-pyrrolidinecarboxylate], for which the EC50 was 100 to 999 nM.

For `CC(=O)N1CCC[C@H]1C(=O)Nc1ccc(-c2cnc(-c3ccc(NC(=O)C4CCN(C(=O)OCc5ccccc5)C4)cc3)o2)cc1` (stereo partly drawn) [MS-4, benzyl 3-((4-(5-(4-((1-acetyl-L-prolyl)amino)phenyl)-1,3-oxazol-2-yl)phenyl)carbamoyl)-1-pyrrolidinecarboxylate], the EC50 is 100 to 999 nM.

Consider `CC(=O)N1CCC[C@H]1C(=O)Nc1ccc(-c2cnc(-c3ccc(NC(=O)C4CC(=O)N(CCc5cccs5)C4)cc3)o2)cc1` (stereo partly drawn) [MS-5, (2S)-1-acetyl-N-[4-[2-[4-[[[5-oxo-1-[2-(2-thienyl)ethyl]-3-pyrrolidinyl]carbonyl]amino]phenyl]-5-oxazolyl]phenyl]-2-pyrrolidinecarboxamide], for which the EC50 lay within 100 to 999 nM.

The assay is the same for the next values; noted with them: Hepatitis C virus, HCV 1b genotype replicon; class symbols; read-out: EC50 Range against HCV 1b.
For the compound `O=C(Nc1ccc(-c2cnc(-c3ccc(NC(=O)[C@@H]4CCCN4C(=O)C(O)c4cccs4)cc3)o2)cc1)[C@@H]1CCCN1C(=O)C(O)c1cccs1` (stereo partly drawn) [JR-6, (2S,2′S)-N,N′-(2,5-oxazolediyldi-4,1-phenylene)bis[1-(hydroxy-2-thienylacetyl)-2-pyrrolidinecarboxamide]], the concentration for a half-maximal effect (EC50) is below 4.57 nM.

As for `O=C(Nc1ccc(-c2cnc(-c3ccc(NC(=O)[C@@H]4CCCN4C(=O)C(O)c4cccnc4)cc3)o2)cc1)[C@@H]1CCCN1C(=O)C(O)c1cccnc1` (stereo partly drawn) [JR-7, (2S,2′S)-N,N′-(2,5-oxazolediyldi-4,1-phenylene)bis[1-(hydroxy-3-pyridinylacetyl)-2-pyrrolidinecarboxamide]], the EC50 lay in the range of 4.57 to 99 nM.

`O=C(Nc1ccc(-c2cnc(-c3ccc(NC(=O)[C@@H]4CCCN4C(=O)Cn4c(=O)[nH]c5ccccc54)cc3)o2)cc1)[C@@H]1CCCN1C(=O)Cn1c(=O)[nH]c2ccccc21` [JR-9, (2S,2′S)-N,N′-(2,5-oxazolediyldi-4,1-phenylene)bis[1-[(2,3-dihydro-2-oxo-1H-benzimidazol-1-yl)acetyl]-2-pyrrolidinecarboxamide]]: the EC50 is 100 to 999 nM.

Consider `CCn1c(=O)n(C(C)C(=O)N2CCC[C@H]2C(=O)Nc2ccc(-c3cnc(-c4ccc(NC(=O)[C@@H]5CCCN5C(=O)C(C)n5c(=O)n(CC)c6ccccc65)cc4)o3)cc2)c2ccccc21` (stereo partly drawn) [JR-10, (2S,2′S)-N,N′-(2,5-oxazolediyldi-4,1-phenylene)bis[1-[2-(3-ethyl-2,3-dihydro-2-oxo-1H-benzimidazol-1-yl)-1-oxopropyl]-2-pyrrolidinecarboxamide]], for which the EC50 was in the range of 1000 to 10000 nM.

Turning to `O=C(Nc1ccc(-c2cnc(-c3ccc(NC(=O)[C@@H]4CCCN4C(=O)C(c4ccccc4)n4c(=O)[nH]c5ccccc54)cc3)o2)cc1)[C@@H]1CCCN1C(=O)C(c1ccccc1)n1c(=O)[nH]c2ccccc21` (stereo partly drawn) [JR-11, (2S,2′S)-N,N′-(2,5-oxazolediyldi-4,1-phenylene)bis[1-[(2,3-dihydro-2-oxo-1H-benzimidazol-1-yl)phenylacetyl]-2-pyrrolidinecarboxamide]], the EC50 fell in the range of 100 to 999 nM.

With `O=C(Nc1ccc(-c2cnc(-c3ccc(NC(=O)[C@@H]4CCCN4C(=O)C4CSC5CCC(=O)N54)cc3)o2)cc1)[C@@H]1CCCN1C(=O)C1CSC2CCC(=O)N21` (stereo partly drawn) [JR-17, (2S,2′S)-N,N′-(2,5-oxazolediyldi-4,1-phenylene)bis[1-[(hexahydro-5-oxopyrrolo[2,1-b]thiazol-3-yl)carbonyl]-2-pyrrolidinecarboxamide]], the EC50 was in the range of 1000 to 10000 nM.

With `CC(C(=O)N1CCC[C@H]1C(=O)Nc1ccc(-c2cnc(-c3ccc(NC(=O)[C@@H]4CCCN4C(=O)C(C)N4C(=O)C5C6CCC(C6)C5C4=O)cc3)o2)cc1)N1C(=O)C2C3CCC(C3)C2C1=O` (stereo partly drawn) [JR-18, (2S,2′S)-N,N′-(2,5-oxazolediyldi-4,1-phenylene)bis[1-[2-(octahydro-1,3-dioxo-4,7-methano-2H-isoindol-2-yl)-1-oxopropyl]-2-pyrrolidinecarboxamide]], the EC50 lay in the range of 1000 to 10000 nM.

For `CC(C)C(C(=O)N1CCC[C@H]1C(=O)Nc1ccc(-c2cnc(-c3ccc(NC(=O)[C@@H]4CCCN4C(=O)C(C(C)C)N4C(=O)C5C6C=CC(C6)C5C4=O)cc3)o2)cc1)N1C(=O)C2C3C=CC(C3)C2C1=O` (stereo partly drawn) [JR-19, (2S,2′S)-N,N′-(2,5-oxazolediyldi-4,1-phenylene)bis[1-[2-(1,3,3a,4,7,7a-hexahydro-1,3-dioxo-4,7-methano-2H-isoindol-2-yl)-3-methyl-1-oxobutyl]-2-pyrrolidinecarboxamide]], the EC50 was 100 to 999 nM.

For `O=C(Nc1ccc(-c2cnc(-c3ccc(NC(=O)[C@@H]4CCCN4C(=O)CN4C(=O)OC[C@@H]4c4ccccc4)cc3)o2)cc1)[C@@H]1CCCN1C(=O)CN1C(=O)OC[C@@H]1c1ccccc1` [JR-20, (2S,2′S)-N,N′-(2,5-oxazolediyldi-4,1-phenylene)bis[1-[[(4S)-2-oxo-4-phenyl-3-oxazolidinyl]acetyl]-2-pyrrolidinecarboxamide]], the EC50 fell in the range of 1000 to 10000 nM.

Regarding `O=C(Nc1ccc(-c2cnc(-c3ccc(NC(=O)[C@@H]4CCCN4C(=O)CN4C(=O)OC[C@H]4c4ccccc4)cc3)o2)cc1)[C@@H]1CCCN1C(=O)CN1C(=O)OC[C@H]1c1ccccc1` [JR-21, (2S,2′S)-N,N′-(2,5-oxazolediyldi-4,1-phenylene)bis[1-[[(4R)-2-oxo-4-phenyl-3-oxazolidinyl]acetyl]-2-pyrrolidinecarboxamide]], the EC50 fell in the range of 1000 to 10000 nM.

For the compound `O=C(Nc1ccc(-c2cnc(-c3ccc(NC(=O)[C@@H]4CCCN4C(=O)CN4C(=O)OC(c5ccccc5)C4=O)cc3)o2)cc1)[C@@H]1CCCN1C(=O)CN1C(=O)OC(c2ccccc2)C1=O` (stereo partly drawn) [JR-22, (2S,2′S)-N,N′-(2,5-oxazolediyldi-4,1-phenylene)bis[1-[(2,4-dioxo-5-phenyl-3-oxazolidinyl)acetyl]-2-pyrrolidinecarboxamide]], the EC50 fell in the range of 1000 to 10000 nM.

The same assay, now with this note: Hepatitis C virus, HCV 1b genotype replicon; read-out: EC50 1b.
Consider `O=C(Nc1ccc(-c2cnc(-c3ccc(NC(=O)[C@@H]4CCCN4C(=O)C(O)c4cccs4)cc3)o2)cc1)[C@@H]1CCCN1C(=O)C(O)c1cccs1` (stereo partly drawn) [JR-6, (2S,2′S)-N,N′-(2,5-oxazolediyldi-4,1-phenylene)bis[1-(hydroxy-2-thienylacetyl)-2-pyrrolidinecarboxamide]], for which the EC50 is below 5 nM.

On to `O=C(Nc1ccc(-c2cnc(-c3ccc(NC(=O)[C@@H]4CCCN4C(=O)CN4C(=O)OC(c5ccccc5)C4=O)cc3)o2)cc1)[C@@H]1CCCN1C(=O)CN1C(=O)OC(c2ccccc2)C1=O` (stereo partly drawn) [JR-22, (2S,2′S)-N,N′-(2,5-oxazolediyldi-4,1-phenylene)bis[1-[(2,4-dioxo-5-phenyl-3-oxazolidinyl)acetyl]-2-pyrrolidinecarboxamide]], for which the EC50 was found to be 1720 nM.

On to `CC(=O)N1CCC[C@H]1C(=O)Nc1ccc(-c2cnc(-c3ccc(NC(=O)C4CCN(C(=O)OCc5ccccc5)C4)cc3)o2)cc1` (stereo partly drawn) [MS-4, benzyl 3-((4-(5-(4-((1-acetyl-L-prolyl)amino)phenyl)-1,3-oxazol-2-yl)phenyl)carbamoyl)-1-pyrrolidinecarboxylate], for which the EC50 was determined as 901 nM.
